Measured values published in US20100216116A1, “VIRAL LATENCY MODEL” (priority 2007, published 2010).
Values joined by “and” are separate entries in the source; they are usually repeats but may differ in a detail not shown here. Equal values may be shown once.

Columns and labels:
Assay type in all cases: cell-based
[1] = tested on: dormant PRV in porcine TG neurons
[2] = tested on: pseudorabies virus (PRV) strain Becker in porcine trigeminal ganglion (TG) neurons
[3] = tested on: IE180 expression in PRV infected porcine TG neurons
[4] = tested on: HSV-1 strain F in porcine TG neurons

Molecule	infected neurons showing expression of late viral proteins [1] [%]	reactivation of PRV in neurons that contained dormant virus at 120 hpi [1] [%]	TG neurons with no detectable expression of late viral antigens [2] [%]	infected neurons with spread of new virus to surrounding non-neuronal cells [2] [%]	neurons with late viral antigen expression limited to the golgi without spread [2] [%]	neurons without detectable expression of late viral proteins after withdrawal [2] [%]	reduction of productive virus infection [2]	IE180 expression in discrete nuclear foci after withdrawal [3]	infected neurons with IE180 in discrete nuclear compartments [3]	infected neurons with localized nuclear IE180 expression [3] [%]	infected neurons without any IE180 staining [3] [%]	expression of HSV-1 gD protein after withdrawal [4]	productive HSV-1 infection [4]	infected neurons without detectable late viral protein expression [2]	virus spread in the inner chamber [2]
C=C[C@@]1(C)CC(=O)[C@]2(O)[C@@]3(C)[C@@H](O)CCC(C)(C)[C@@H]3[C@H](O)[C@H](OC(C)=O)[C@@]2(C)O1 [forskolin, Forskolin]	70	50	–	–	–	–	–	–	–	–	–	–	–	–	–
IFN-α	–	–	~90	~4	~6	60	64% and 98%	no infected neurons showing IE180 protein expression in discrete nuclear foci could be detected	detected in all infected neurons	45	55	no detectable expression of HSV-1 gD protein was found in any neuron	completely abolished	–	–
IFN-γ (protein, UniProt P01579 24-161, looked up) Interferon gamma: QDPYVKEAENLKKYFNAGHSDVADNGTLFLGILKNWKEESDRKIMQSQIVSFYFKLFKNFKDDQSIQKSVETIKEDMNVKFFNSNKKKRDDFEKLTNYSVTDLNVQRKAIHELIQVMAELSPAAKTGKRKRSQMLFRG	–	–	–	–	–	–	45% and 81%	–	–	–	–	–	–	Over 90%	extensive virus spread
